These results are taken from patent US20030186943A1, “Substituted gamma-phenyl-delta-lactams and uses related thereto” (Inflazyme Pharmaceuticals Ltd., priority 1998, published 2003).

Like-named read-outs stand apart in the source and are kept apart here.

In assay [1] the test system is High Affinity Rolipram Binding Site of PDE4 in Mouse Brain. The assay is described as follows: Displacement of [3H]-rolipram from its high affinity binding site (HARBS). As to conditions: ratio of IC50 for PDE4 catalytic activity to concentration displacing 50% of rolipram from HARBS. The protocol: Suspension was centrifuged twice at 30,000×G at 4° C. and the supernatant discarded. The pellet was resuspended in buffer, and adjusted to a protein concentration of 0.5 mg/mL. Drugs to be tested were dissolved in DMSO and pipetted in triplicate into a 96 well microplate at concentrations ranging from 1 to 30,000 nM. […] The plate was incubated at 4° C. for 1 hour. Contents of the plate were aspirated through a Whatman GF/C filterplate, and rinsed with 4×200 μL ice-cold buffer. […] Triplicate determinations were performed at each concentration.
(Loss of bound radioactivity is the signal in a displacement assay; it reports binding, not function.)

The test system of assay [2] is cAMP response element luciferase activity in human U937 monocytic cells. The assay is described as follows: Potentiation of forskolin-induced CRE-luciferase activity in U937 cells. The assay is classed as cell-based. Conditions: U-937, U937 cells co-incubated with 10 μM forskolin, 4 hours, X marks this range. The protocol: Compounds of the present invention were thereby shown to provide potentiated luciferase expression in U937 cells treated with the adenylyl cyclase activator forskolin.
Human pro-monocytic U937 cells were maintained in RPMI medium containing 10% FCS and 2 mM […]. U937 cells were transiently transfected as described in Biotechniques Vol. 17(6):1058, 1994. Briefly, cells were grown in medium containing serum to a density of 5×10^6 cells/mL and then resuspended in media containing serum at a density of approximately 1×10^7 cells/mL. 400 μL of cells were transferred into the electroporation cuvette containing 10 μg of the reporter vector (PCRE-luc) in a volume of 40 μL H2O. Reporter vector DNA was prepared from DH5α E. coli using the DNA […] free kit (Qiagen) as per manufacturers instructions. U937 cells were clectroporated at room temperature using a BIORAD electroporator. Capacitance was set to 1050 μF and voltage was 280V. The time constant was noted after each electroporation. Cells were then diluted in 4 mL of media and serum and 200 μL of cells were plated per well. Cells were allowed to recover for 16-18 hours. Cells were then treated with a test compound or vehicle in the presence or absence of 10 μM forskolin for 4 hours at 37° C.
The luciferase assay was performed as per manufacturers instructions (Tropix). Briefly, cells were centrifuged for 4 minutes at 1200 rpm and media supernatant was removed. Cell pellets were lysed in 15 μL Lysis buffer (Tropix). Luciferase assay was performed using 10 μL of cell lysate with 10 μL of buffer A and 25 μL buffer B. Luciferase activity was obtained using a luminometer with a 5-second delay followed by a read time of 10 seconds.

For assay [3], the system named is Resiniferitoxin-induced mouse ear edema. The assay is described as follows: Resiniferitoxin-induced mouse ear edema. Conditions: Mus musculus, CD1 mice; for inhibition in vivo at 50 µg/ear: topical administration, 50 μg/ear, RTX 0.1 μg/ear. The assay is classed as in vivo. From the text:
One of the primary characteristics of inflammation is an increase in vascular dilation and permeability leading to the extravasation of, and collection of fluids in, the interstitium, resulting in redness and swelling. Rheumatoid arthritis in particular is characterized by pronounced edema of affected joints resulting in significant pain and stiffness. The mouse ear inflammation model is a standard in vivo assay for inflammation that is based on an increase in ear weight which is attributable to edema induced by inflammatory mediators. RTX (resiniferitoxin; Sigma; Catalogue No. R 8756)) is a diterpene isolated from the plant Euphorbia poisonii and is an ultrapotent analog of capsaicin. RTX acts by selectively stimulating nociceptive and thermal-sensitive nerve ending in tissue, eliciting neurogenic edema. Compounds of the present invention, whether administered topically, intraperitoneally or orally, inhibited development of edema induced by topical application of RTX.
Mice (CD1, Charles River Laboratories) were separated into groups (n—5−8) and tagged. Control mice had RTX (0.1 μg/ear) applied topically to the inner and outer sides of the left ear and vehicle applied to the right ear as a control. For topical administration, experimental/treatment mice received RTX+test compound solution (50 μg/ear) on the left ear and acetone on the right ear. For intraperitoneal (i.p.) administration, 100 mg/kg test compound dissolved in 100 μL PEG 200:saline (1:1) was injected followed by a 30 minute waiting period then the standard 30 minute RTX edema induction. For oral (p.o.) administration, 10 mg/kg test compound in 100 μL PEG-200 was given to animals, then edema induced using 0.1 μg/ear RTX after a 1.5 hour waiting period. After edema induction, mice were sacrificed, and a standard disc of ear tissue was removed. Each disk of tissue was immediately weighed to the nearest 1/10th of a mg. Data were analyzed by taking the difference of each left ear from the right ear, calculating the mean+/−SEM. Statistical significance was tested by 2-sample t-test on the left/right ear weight differences of the control group vs. the experimental group.

Assay [4] relates to primary human neutrophils. Description: Generation of reactive oxygen species by fMLP-activated neutrophils (luminol-enhanced chemiluminescence). The assay is classed as cell-based. As to conditions: Neutrophil. The text has this:
Neutrophil activation can be measured by quantitation of ROS generated in vitro. Measurement of ROS allows specific quantitation of a pro-inflammatory species and is also a general measure of neutrophil activation. The most sensitive method for measuring the production of ROS by neutrophils is luminol-enhanced chemiluminescence. […] The assay system used to evaluate the ability of compounds to inhibit ROS generation in neutrophils is indicative of anti-inflammatory activity that may be efficacious in disease states including but not limited to rheumatoid arthritis and inflammatory bowel disease.
Freshly isolated primary human neutrophils (5×10^6 cells/mL) were incubated with the required concentrations of compound or vehicle for 30 minutes at 37° C. in HBSS buffer (pH 7.4) containing Ca^2+. 100 nM wortmannin was used as a positive control. Aliquots of each sample were transferred to a microtitre plate to which luminol (1 μM); obtained from Sigma; Catalogue No. A8511 is added. Activation of the neutrophils was immediately initiated by addition of (1 μM) fMLP; obtained from Sigma, Catalogue No. F3506. Light output from each well was recorded for 30 minutes in a microplate luminometer. Total light output (integral of the time-course) was determined for each well. Inhibitory activities of test drugs against neutrophil ROS generation is expressed as percentage activity relative to a no drug control (100% activation or generation of ROS) containing 0.25% DMSO. Concentration of test compound required to inhibit the generation of ROS to 50% of control values (IC50's) were determined from concentration-response curves by non-linear regression analysis.

Assay [5] relates to primary human neutrophils. The assay is described as follows: fMLP-induced human neutrophil chemotaxis. As to conditions: fMLP-induced chemotaxis, X marks this range. The assay is classed as cell-based. The protocol: Chemotaxis buffer containing the chemoattractant fMLP (10 μM) was added to each well of a chemotaxis plate and a filter was inserted ensuring contact between the filter and the chemotaxis buffer in the well. A submaximal concentration of chemoattractant was used which had been determined in previous experiments. […] Freshly isolated neutrophils (1×10^6) were incubated with vehicle (0.125% DMSO)±test compound for 1 hr at 37° C. Treatment and control cell suspensions were then gently resuspended and 20 μL of cells was added to the top side of the filter on each well. The plate was incubated for 1.5 hours at 37° C. under 5% CO2. Cells were then removed from the top side of the filter by aspiration and the entire plate was centrifuged. The filter was removed and known concentrations of cells were added to unused wells to prepare a standard curve. XTT (Sigma; Catalogue No. X 4251)/PMS (Sigma; Catalogue No. P 7626) solution prepared in buffer was added to each well and the cells were further incubated 1-2 hours and measured for absorbance at 450 nm. Absorbance values were converted to cell numbers using the standard curve. IC50 values are averages from at least three separate experiments with triplicate determinations.

Assay [6] concerns the target T1, cAMP phosphodiesterase 3 from human platelets (Homo sapiens, UniProt Q14432).
T1 construct: from tissue; host or cells: human platelets, cytoplasmic extract
Description: Inhibition of cAMP phosphodiesterase 3 from human platelets. The assay is classed as biochemical. As to conditions: PDE3, platelet cell extract, X marks this range. From the text:
Compound 12 was screened for activity against 5 of the major classes of mammalian cyclic nucleotide phosphodiesterase (termed PDE 1 through 5). PDE's 1 through 4 utilize cAMP as substrate while PDE 5 uses cGMP. The broad specificity PDE inhibitor 3-isobutyl-1-methylxanthine (IBMX; Sigma; Catalogue No. 17018)) was used as a positive control in all assays. PDE's for the various assays were partially purified from the following cells/tissues; PDE 1 (bovine heart), PDE 2 (human platelets), PDE 3 (human platelets), PDE 4 (human promonocytic U937 cells) and PDE 5 (human platelets).
Platelet cell extracts were prepared as described above for the U937 cells. The PDE3 assay was performed using platelet cell extract as described above for the PDE 4 assay. Platelets contain PDE 2, 3 and 5. However PDE2 and 5 preferentially utilize cGMP, so in an assay with cAMP as a substrate they are not detected.

Assay [7] deals with K562 chronic myelogenous leukemia cells. The assay is described as follows: Anti-proliferative activity in K562 cells (3H-thymidine uptake). The assay is classed as cell-based, human. The protocol:
90 μL K562 cells (human chronic myelogenous leukemia cells) were seeded into sterile 96-well assay plates at a density of 1×10^5 cells/mL in RPMI 1640 supplemented with 10% FBS/2 mM L-glutamine. Samples to be tested were prepared in a sterile 96-well assay plate at 10×the final concentration desired. All sample dilutions contained equal amounts of DMSO to compensate for the % DMSO in the highest sample concentration used. Nine concentrations of test compound were examined for effects on growth up to a maximal concentration of 100 μM. 10 μL of the samples and controls (DMSO/normal growth control) were added to the aliquoted cells. The cells were incubated at 37° C./5% CO2 for 48 hours. Following 48 hour incubation, 20 μL of 3H-thymidine was added to each well for a final concentration of 1 μCi/mL. The cells were then incubated at 37° C./5% CO2 for 4 to 6 hours. Following 4-6 hour thymidine pulse, plates were wrapped in plastic and frozen in a −20° C. frost-free freezer overnight. Cells were harvested and ^3H-thymidine counts determined. In order to distinguish between cytotoxicity and cytostatic activity, growth curves were prepared where the average CPM value of the seeding density of cells was plotted on the same curve as the average CPM value for the maximum proliferation attained after 48 hours (DMSO growth control cells). The cells were diluted 1:2 for a concentration range of 7.8×10^3 cells/mL to 2×10^6 cells/mL. 90 μL of each cell dilution was seeded in sterile 96-well assay plated and allowed to equilibrate for approximately 4 hours at 37° C./5% CO2 prior to ^3H-thymidine pulse. The data in Table 15 was obtained as described above, and more specifically, K562 cells were seeded into 96-well plates at 1×10^5 cells/mL in RPMI 1640 supplemented with 10% FBS/2 mM L-glutamine. Various concentrations of test compound or vehicle (DMSO) was added and the cells were incubated at 37° C./5 CO2 for 48 hours. The cells were then pulsed at 37° C./5% CO2 for 4 to 6 hours with 1 μCi/mL ^3H-thymidine. Radioactivity incorporated into DNA was determined after harvesting onto glass fiber filters and scintillation counting.

Where [8] appears, read: read-out: IC50 RANGE (μM) <1, ROS production, X marks this range.
[9] abbreviates: read-out: IC50 range (μM) 10-100.

T1 sequence (Q14432 whole entry): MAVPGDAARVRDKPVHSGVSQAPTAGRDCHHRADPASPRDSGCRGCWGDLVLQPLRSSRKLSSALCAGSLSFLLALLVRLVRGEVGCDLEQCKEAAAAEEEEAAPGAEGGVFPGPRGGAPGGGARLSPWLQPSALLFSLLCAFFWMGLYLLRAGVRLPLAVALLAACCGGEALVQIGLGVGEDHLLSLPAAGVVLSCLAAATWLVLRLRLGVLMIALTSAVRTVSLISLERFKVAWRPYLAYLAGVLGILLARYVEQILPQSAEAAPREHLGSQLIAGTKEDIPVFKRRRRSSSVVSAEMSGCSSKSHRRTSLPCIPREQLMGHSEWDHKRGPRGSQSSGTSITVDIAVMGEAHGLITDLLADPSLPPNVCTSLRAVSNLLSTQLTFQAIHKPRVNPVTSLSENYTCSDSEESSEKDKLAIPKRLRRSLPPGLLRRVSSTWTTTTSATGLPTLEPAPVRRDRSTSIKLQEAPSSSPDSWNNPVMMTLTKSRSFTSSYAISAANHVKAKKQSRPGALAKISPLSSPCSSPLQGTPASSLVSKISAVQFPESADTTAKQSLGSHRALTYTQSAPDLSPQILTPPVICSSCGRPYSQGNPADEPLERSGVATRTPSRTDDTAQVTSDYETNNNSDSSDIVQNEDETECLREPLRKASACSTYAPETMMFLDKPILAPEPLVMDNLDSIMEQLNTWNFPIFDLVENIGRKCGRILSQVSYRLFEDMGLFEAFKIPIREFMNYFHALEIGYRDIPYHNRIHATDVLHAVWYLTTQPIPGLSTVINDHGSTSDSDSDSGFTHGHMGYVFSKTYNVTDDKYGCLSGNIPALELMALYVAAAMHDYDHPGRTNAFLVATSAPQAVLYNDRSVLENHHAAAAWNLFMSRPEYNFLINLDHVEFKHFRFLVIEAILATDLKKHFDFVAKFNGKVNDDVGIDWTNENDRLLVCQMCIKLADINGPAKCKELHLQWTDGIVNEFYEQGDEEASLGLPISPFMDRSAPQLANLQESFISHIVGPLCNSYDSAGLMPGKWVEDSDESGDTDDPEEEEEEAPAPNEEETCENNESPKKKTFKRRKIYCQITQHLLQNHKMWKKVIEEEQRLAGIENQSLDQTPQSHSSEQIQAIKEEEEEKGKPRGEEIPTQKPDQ

As usually defined, the EC50 is the midpoint of the concentration-response curve. As a reminder, the inhibition in vivo is how much of the control response was suppressed. A high value points to strong suppression. By IC50 is commonly meant the point on the concentration scale where inhibition reaches its midpoint. As for `COc1ccc([C@@H]2CCC(=O)OC2)cc1OC` [Compound 21], the “PDE4:HARBS” value in assay [1] is less than 1. In assay [2] (read-out: EC50 range (μM) 1-25), the EC50 lay within 1 to 25 µM. Moreover, in assay [3], the inhibition in vivo at 50 µg/ear came out at 32%. Also, the IC50 in assay [4] (ROS production, X marks this range, read-out: IC50 RANGE (μM) 1-10) was 1 to 10 µM; in assay [5] (read-out: IC50 RANGE (μM) 1-10), 1 to 10 µM; in assay [6] it was greater than 100 µM.
As to `COc1cc(C[C@H]2C[C@@H](c3ccc(OC)c(OC)c3)COC2=O)ccc1O` [Compound 29], in assay [1], the “PDE4:HARBS” value was less than 1. Also, in assay [2] (read-out: EC50 range (μM) 1-25), the EC50 fell in the range of 1 to 25 µM. This compound also returned an inhibition in vivo at 50 µg/ear in assay [3] of 76%. Further, the IC50 in assay [4] (setting [8]) was less than 1 µM; in assay [5] (read-out: IC50 RANGE (μM) 10-100) it was 10 to 100 µM; in assay [6] (setting [9]), 10 to 100 µM.
`CCCCOc1cc([C@@H]2CCC(=O)OC2)ccc1OC` [Compound 99]: in assay [1], the “PDE4:HARBS” value is listed as greater than 1. Also, the half-maximal effective concentration (EC50) in assay [2] (read-out: EC50 range (μM) 0.1-1) was in the range of 0.1 to 1 µM. The compound also returned an inhibition in vivo at 100 mg/kg in assay [3] (ip, intraperitoneal administration, 100 mg/kg) of 88%. This compound also returned an inhibition in vivo at 50 µg/ear in assay [3] of 98%. Also, the IC50 in assay [4] (setting [8]) is less than 1 µM; in assay [6], greater than 100 µM.
Take `COc1cc(CC2CC(c3ccc(OC)c(OC)c3)COC2=O)ccc1O` (stereo not drawn) [Compound 129]: the “PDE4:HARBS” value in assay [1] is given as less than 1. The EC50 in assay [2] (read-out: EC50 range (μM) 1-25) was 1 to 25 µM. The IC50 is less than 1 µM in assay [4] (setting [8]), 1 to 10 µM in assay [5] (read-out: IC50 RANGE (μM) 1-10) and 10 to 100 µM in assay [6] (setting [9]).
With `COc1cc(C[C@@H]2C[C@H](c3ccc(OC)c(OC)c3)COC2=O)ccc1O` [Compound 130], the “PDE4:HARBS” value in assay [1] was less than 1. Further, the EC50 in assay [2] (read-out: EC50 range (μM) 1-25) was in the range of 1 to 25 µM. Further, the half-inhibitory concentration (IC50) is less than 1 µM in assay [4] (setting [8]), 1 to 10 µM in assay [5] (read-out: IC50 RANGE (μM) 1-10) and 10 to 100 µM in assay [6] (setting [9]).
Consider `COc1ccc([C@H]2COC(=O)C(Cc3ccc(O)c(O)c3)C2)cc1OC1CCCC1` (stereo partly drawn) [Compound 179], for which the “effect on proliferative ability / cell cycle of K-562 cells” value in assay [7] is reported as “cell cycle arrest”. Besides, in assay [1], the “PDE4:HARBS” value is on record as less than 1.
